Measurements taken from US20250145579A1, “PROCESS FOR MANUFACTURING AN LPXC ANALOG” (Zoetis Services LLC, priority 2022, published 2025).
“Also recorded” adds a separate entry of the source.

Assay: Relative stability of isolated solid forms (slurry experiments, XRD)
Assay type: physicochemical
Settings: for relative stability of the solid form: as isolated solids
Description: A number of polymorphic forms of (R)-4-(4-(4-(2H-1,2,3-triazol-2-yl)phenyl)-2-oxopyridin-1 (2H)-yl)-N-hydroxy-2-methyl-2-(methylsulfonyl)-butanamide were prepared (Forms 1, 2 and 3) as API slurries in a number of protic and aprotic solvents. With the exception of acetonitrile, methyl ethyl ketone, and tetrahydrofuran, the use of aprotic solvents like ethyl, butyl or propyl acetate result in Form 1. With the exception of water, the use of protic solvents such as butyl, propyl and ethyl alcohol favor the formation of Form 2. An unstable Form 3 was also noted. The presence of water in alcohols increased the rate of Form 2 isolation from solution. […] The three forms were structurally related and were solvated and/or hydrated.
The relative stability of the three isolated solid forms appears to be different as suspensions compared to isolated solids. […] As suspensions, the relative stability of these solvates is dependent on the solvent or solvent/water mixture that is present.
It is very likely that these three solvated solids are nearly isostructural and differ in subtle ways that are linked to the way solvent or water are packed into the solvation sites in the structure. There is an increasing complexity of the XRD patterns with Form 1 being the most complex (most peaks) and Form 3 having the fewest peaks. This pattern complexity (F1>F2>F3) parallels the apparent stability of the dried isolated samples. Out of 384 solvent mixtures, a total of 90 samples were mixtures rather than pure phase Forms.
The X-ray diffractograms were obtained on a Scintag X1 powder diffractometer equipped with a Peltier cooled solid state detector. Data were collected between 4 and 40° 20 using a 0.03° step size and data acquisition time was 45 to 60 minutes for sample characterization. Data collection for solids isolated from the bulk of the small scale preliminary experiments was at a 0.04° step size over 15 minutes between 7 and 37 degrees 2-theta. Copper Kα radiation (λ=1.54056 Å) was utilized and the tube voltage and amperage were set to 45 kV and 40 mA, respectively. […]

Structure (SMILES)	stability of the solid form / form conversion (by XRD patterns of isolated solids from slurries)	relative stability of the solid form
C[C@@](CCn1ccc(-c2ccc(-n3nccn3)cc2)cc1=O)(C(=O)NO)S(C)(=O)=O [Form 3, (R)-4-(4-(4-(2H-1,2,3-triazol-2-yl)phenyl)-2-oxopyridin-1 (2H)-yl)-N-hydroxy-2-methyl-2-(methylsulfonyl)-butanamide]	unstable; also recorded: meta-stable and converts to Form 2	–
C[C@@](CCn1ccc(-c2ccc(-n3nccn3)cc2)cc1=O)(C(=O)NO)S(C)(=O)=O [Form 2, (R)-4-(4-(4-(2H-1,2,3-triazol-2-yl)phenyl)-2-oxopyridin-1 (2H)-yl)-N-hydroxy-2-methyl-2-(methylsulfonyl)-butanamide]	–	meta-stable relative to Form 1
C[C@@](CCn1ccc(-c2ccc(-n3nccn3)cc2)cc1=O)(C(=O)NO)S(C)(=O)=O [Form 1, (R)-4-(4-(4-(2H-1,2,3-triazol-2-yl)phenyl)-2-oxopyridin-1 (2H)-yl)-N-hydroxy-2-methyl-2-(methylsulfonyl)-butanamide]	–	most stable form
